We go through 1 compound from ChEMBL document CHEMBL1125036, “Antitumor properties of tetrahydrobenz[a]anthraquinone derivatives” (1990).

Assay [1] concerns L1210. Put plainly: Anticancer activity against murine leukemia L1210 cells. The assay is classed as functional, Mus musculus.
Assay [2] has as its system WiDr. As to the kind of experiment: Anticancer activity against human colon carcinoma WiDr cells. The assay is classed as functional.
Assay [3] has as its system NCI-H125. As to the kind of experiment: Anticancer activity against human nonsmall cell lung carcinoma (H125 cells). The assay is classed as functional.
In assay [4] the test system is MCF7. Put plainly: Anticancer activity against human breast carcinoma MCF-7 cells. Type of assay: functional.
Assay [5] deals with A121. As to the kind of experiment: Anticancer activity against human ovarian carcinoma A121 cells. Type of assay: functional.

With `COc1cc2c(c3c1C(=O)c1c(NCCNCCO)ccc(NCCNCCO)c1C3=O)CCCC2`, the Activity in assay [1] amounted to 2 µM; in assay [2] it was 960 nM; in assay [3] it was 220 nM; in assay [4], 1000 nM; in assay [5] it was 100 nM.
